Some test systems named below: HOP-62 NSCLC; M19-MEL melanoma; DMS 114 small cell lung; LXFL 529 NSCLC; DMS 273 small cell lung; HT29 colon; DLD-1 colon; KM20L2 colon; SR leukemia; SNB-78 CNS; SK-MEL-2 melanoma; XF 498 CNS.
What all share (experiment): NCI anticancer screen, dose series, 48 h

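The compound was tested at five concentrations on cells cultured in 96-well plates, with a 48-hour exposure period. GI50 is the concentration that inhibits growth by half. TGI: concentration producing complete growth inhibition.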 Bounds are passed on as bounds.

Turning to `CCOc1ccccc1NC(=O)C1=C(C)NC(C)=C(C(=O)Nc2ccccc2OCC)C1c1ccc([N+](=O)[O-])cc1`, the TGI with HOP-62 NSCLC, with M19-MEL melanoma, with DMS 114 small cell lung, in the experiment with LXFL 529 NSCLC, with DMS 273 small cell lung and with HT29 colon was more than 100 µM in each case. In addition, the TGI with DLD-1 colon, in the experiment on KM20L2 colon, with SR leukemia, with SNB-78 CNS and with SK-MEL-2 melanoma was more than 100 µM in each case.

With `COc1cc(CCc2ccc(OC(C)=O)cc2)cc(OC)c1OC`, the TGI in the experiment with HOP-62 NSCLC, in the experiment with M19-MEL melanoma, with DMS 114 small cell lung, with LXFL 529 NSCLC, with DMS 273 small cell lung and in the experiment on HT29 colon was more than 100 µM in each case. Also, the TGI in the experiment with DLD-1 colon, in the experiment on KM20L2 colon and in the experiment with SNB-78 CNS was more than 100 µM throughout.

Consider `Cc1nc(-n2nc(-c3ccccc3)cc2-c2ccccc2)sc1C(=O)/C=C/c1ccccc1`, for which the TGI in the experiment on HOP-62 NSCLC, in the experiment on M19-MEL melanoma, in the experiment with DMS 273 small cell lung, with HT29 colon, in the experiment on DLD-1 colon and in the experiment with KM20L2 colon was more than 100 µM each time. Besides, the TGI in the experiment with SNB-78 CNS and in the experiment on SK-MEL-2 melanoma was more than 100 µM each time.

On to `C/C(CC(=O)Nc1cccc([N+](=O)[O-])c1)=N\NC(=O)C[n+]1ccccc1`, for which the TGI in the experiment with XF 498 CNS, in the experiment on HOP-62 NSCLC, in the experiment on M19-MEL melanoma, in the experiment with DMS 114 small cell lung, in the experiment with LXFL 529 NSCLC and in the experiment with HT29 colon was more than 100 µM each time. The TGI with DLD-1 colon, in the experiment on KM20L2 colon, in the experiment on SNB-78 CNS and in the experiment on SK-MEL-2 melanoma was more than 100 µM in each case.

As to `O=C1CNN=C(Cn2nc(-c3ccccc3)c3ccccc3c2=O)N1`, the TGI with HOP-62 NSCLC, in the experiment with M19-MEL melanoma, in the experiment with DMS 114 small cell lung, in the experiment with LXFL 529 NSCLC, in the experiment with DMS 273 small cell lung and in the experiment on HT29 colon was more than 100 µM in each case. In addition, the TGI with DLD-1 colon, in the experiment with SR leukemia, in the experiment with SNB-78 CNS and with SK-MEL-2 melanoma was more than 100 µM in each case.

For `O=c1[nH]c2ccc([N+](=O)[O-])cc2nc1/C(=N/Nc1ccccc1)C(O)c1ccco1` (stereo unspecified), the TGI in the experiment with XF 498 CNS, in the experiment with HOP-62 NSCLC, in the experiment on M19-MEL melanoma, in the experiment on DMS 114 small cell lung, with LXFL 529 NSCLC and with DMS 273 small cell lung was more than 100 µM throughout. The TGI with HT29 colon, in the experiment with DLD-1 colon, in the experiment with KM20L2 colon, in the experiment on SR leukemia, in the experiment with SNB-78 CNS and with SK-MEL-2 melanoma was more than 100 µM each time.

In the case of `O=C(c1ccccc1)c1cc(Cl)ccc1NCn1nnc2ccccc21`, the TGI in the experiment on XF 498 CNS, in the experiment on HOP-62 NSCLC, with M19-MEL melanoma, with DMS 114 small cell lung, with LXFL 529 NSCLC and in the experiment on DMS 273 small cell lung was more than 100 µM throughout. In addition, the TGI in the experiment with HT29 colon, with DLD-1 colon, in the experiment on KM20L2 colon, with SR leukemia and in the experiment with SK-MEL-2 melanoma was more than 100 µM throughout.

On to `O=CC1=CCC2c3[nH]c4ccccc4c3CCN2C1` (stereo unspecified), for which the TGI was 213 µM in the experiment on XF 498 CNS; more than 39.6 µM in the experiment with HOP-62 NSCLC; 206 µM in the experiment on M19-MEL melanoma; 266 µM in the experiment with DMS 114 small cell lung; 137 µM in the experiment with LXFL 529 NSCLC; 212 µM in the experiment with DMS 273 small cell lung. The TGI is 273 µM with HT29 colon; 226 µM with DLD-1 colon; more than 396 µM in the experiment on KM20L2 colon; more than 396 µM in the experiment with SR leukemia; 267 µM in the experiment with SK-MEL-2 melanoma.

As to `O=c1cccccc1[O-].O=c1cccccc1[O-].O=c1cccccc1[O-].[Sm+3]`, the GI50 is 37.1 µM with HOP-62 NSCLC; 11.3 µM with DMS 273 small cell lung; 18 µM with DLD-1 colon; 15.4 µM with KM20L2 colon; 30.6 µM in the experiment with SNB-78 CNS. Further, the TGI in the experiment with HOP-62 NSCLC, in the experiment with DMS 273 small cell lung, in the experiment on HT29 colon, with DLD-1 colon, in the experiment with KM20L2 colon and in the experiment on SNB-78 CNS was more than 100 µM throughout. The compound also came in with a TGI in the experiment with SK-MEL-2 melanoma of more than 100 µM.

As for `O=C(/C(=C/c1ccc(O)cc1)c1ccccc1)c1ccccc1`, the TGI with HOP-62 NSCLC stood at 33.9 µM; in the experiment on M19-MEL melanoma, 32.4 µM; in the experiment on DMS 114 small cell lung, 24.4 µM; with LXFL 529 NSCLC, 35.7 µM; in the experiment with HT29 colon it was 32.1 µM; in the experiment with DLD-1 colon, 31 µM. Besides, the TGI in the experiment on SR leukemia was 61.2 µM; in the experiment on SNB-78 CNS it was 70.9 µM; in the experiment with SK-MEL-2 melanoma, 24.1 µM.

`COc1ccc2c(c1)[n+](=O)c(C(C)=O)c(C)n2[O-]`: the TGI in the experiment on XF 498 CNS, in the experiment on HOP-62 NSCLC, with M19-MEL melanoma, in the experiment on DMS 114 small cell lung, with LXFL 529 NSCLC and in the experiment with HT29 colon was more than 100 µM each time. Besides, the TGI with DLD-1 colon, with SNB-78 CNS and in the experiment with SK-MEL-2 melanoma was more than 100 µM each time.

`CC(=O)NN(c1ccccc1)C1CCN(c2ccccc2)N1C(C)=O` (stereo unspecified): the TGI in the experiment with HOP-62 NSCLC, in the experiment on HT29 colon, in the experiment with SR leukemia and in the experiment on SK-MEL-2 melanoma was more than 10 µM each time.

With `CC1=CCN(c2ccccn2)OC1c1ccccc1` (stereo unspecified), the TGI in the experiment with XF 498 CNS, with HOP-62 NSCLC, with M19-MEL melanoma, with DMS 114 small cell lung, with LXFL 529 NSCLC and with DMS 273 small cell lung was more than 100 µM throughout. In addition, the TGI in the experiment on HT29 colon, with DLD-1 colon, in the experiment on KM20L2 colon, in the experiment on SR leukemia, with SNB-78 CNS and in the experiment on SK-MEL-2 melanoma was more than 100 µM throughout.

`COc1cccc(CCCNC(=O)Cc2ccccc2CO)c1`: the TGI with HOP-62 NSCLC, with HT29 colon, in the experiment on SR leukemia and with SK-MEL-2 melanoma was more than 100 µM in each case.

For `COc1ccc(N=Nc2c(N)nn3c(SC)c(C#N)c(N)nc23)cc1`, the TGI in the experiment on HOP-62 NSCLC amounted to 44 µM; in the experiment on HT29 colon it was 25.5 µM; in the experiment with SR leukemia, 4.59 µM; with SK-MEL-2 melanoma it was 7.12 µM.

With `CN(C)C(=O)Oc1ccc(C(=S)Nc2ccccc2)cc1`, the TGI in the experiment on HOP-62 NSCLC, in the experiment with HT29 colon, with SR leukemia and with SK-MEL-2 melanoma was more than 100 µM throughout.

In the case of `COC(=O)C1CCC(=O)N1/C(C)=N/NC(=O)Nc1ccc(Cl)c(Cl)c1` (stereo unspecified), the TGI in the experiment with XF 498 CNS, with HOP-62 NSCLC, with M19-MEL melanoma, in the experiment on DMS 114 small cell lung, with LXFL 529 NSCLC and in the experiment on DMS 273 small cell lung was more than 100 µM throughout. Moreover, the TGI in the experiment on DLD-1 colon, in the experiment on KM20L2 colon, in the experiment with SR leukemia, with SNB-78 CNS and in the experiment with SK-MEL-2 melanoma was more than 100 µM throughout.

Consider `COC1OC(C(=O)O)C2OC(C)(C)OC12` (stereo unspecified), for which the TGI with HOP-62 NSCLC, with HT29 colon, in the experiment with SR leukemia and in the experiment with SK-MEL-2 melanoma was more than 100 µM each time.

With `CSc1nc(C)c2c(n1)N(c1ccc(Cl)cc1)CC2`, the TGI in the experiment with HOP-62 NSCLC, in the experiment with HT29 colon, in the experiment with SR leukemia and with SK-MEL-2 melanoma was more than 100 µM each time.

For the compound `CCOC(=O)c1cc2c3c(cc(OC)c2[nH]1)N(C(=O)OCC)CC3`, the TGI in the experiment with HOP-62 NSCLC, with HT29 colon, with SR leukemia and with SK-MEL-2 melanoma was more than 100 µM in each case.

With `COC(=O)C(=O)C(C(=O)C(=O)Nc1ccc(C)c(C)c1)c1nc2ccc([N+](=O)[O-])cc2[nH]c1=O` (stereo unspecified), the TGI in the experiment on HOP-62 NSCLC, in the experiment on HT29 colon, in the experiment on SR leukemia and in the experiment with SK-MEL-2 melanoma was more than 100 µM in each case.

Consider `COC(=O)CC1CC2(C(=O)OC)c3[nH]c4ccccc4c3CCN2C1=O` (stereo unspecified), for which the TGI in the experiment on XF 498 CNS, in the experiment with HOP-62 NSCLC, in the experiment with M19-MEL melanoma, in the experiment with DMS 114 small cell lung, with LXFL 529 NSCLC and in the experiment on DMS 273 small cell lung was more than 100 µM in each case. Also, the TGI in the experiment with HT29 colon, with DLD-1 colon, with KM20L2 colon, with SR leukemia, in the experiment on SNB-78 CNS and in the experiment on SK-MEL-2 melanoma was more than 100 µM each time.

As for `O=c1c2cc(I)ccc2nc(-c2cccs2)n1O`, the TGI with HOP-62 NSCLC, in the experiment with HT29 colon, in the experiment on SR leukemia and with SK-MEL-2 melanoma was more than 100 µM each time.

As to `Cc1nc(Cc2n[nH]c(C)n2)n[nH]1`, the TGI in the experiment with HOP-62 NSCLC, in the experiment with HT29 colon, in the experiment with SR leukemia and in the experiment on SK-MEL-2 melanoma was more than 100 µM in each case.

As to `N#Cc1c(N)nc(Sc2ccccc2N)c(C#N)c1-c1ccccc1`, the TGI in the experiment on HOP-62 NSCLC is more than 100 µM; in the experiment on HT29 colon, more than 100 µM; in the experiment with SR leukemia, more than 100 µM; with SK-MEL-2 melanoma it was 32.5 µM.
